This is an account of results in US20200171030A1, “DUAL INHIBITORS OF ALK5 AND P38A MAP KINASE” (INTEGRAL BIOSCIENCES PRIVATE LIMITED, priority 2018, published 2020).

Structures can show the parent of a compound that is named as a salt. Where two headings read alike, the source gives them in different places.

One test addresses T1, TGFBR1 (ALK5) (Homo sapiens, UniProt P36897).
T1 sequence (P36897 34-503): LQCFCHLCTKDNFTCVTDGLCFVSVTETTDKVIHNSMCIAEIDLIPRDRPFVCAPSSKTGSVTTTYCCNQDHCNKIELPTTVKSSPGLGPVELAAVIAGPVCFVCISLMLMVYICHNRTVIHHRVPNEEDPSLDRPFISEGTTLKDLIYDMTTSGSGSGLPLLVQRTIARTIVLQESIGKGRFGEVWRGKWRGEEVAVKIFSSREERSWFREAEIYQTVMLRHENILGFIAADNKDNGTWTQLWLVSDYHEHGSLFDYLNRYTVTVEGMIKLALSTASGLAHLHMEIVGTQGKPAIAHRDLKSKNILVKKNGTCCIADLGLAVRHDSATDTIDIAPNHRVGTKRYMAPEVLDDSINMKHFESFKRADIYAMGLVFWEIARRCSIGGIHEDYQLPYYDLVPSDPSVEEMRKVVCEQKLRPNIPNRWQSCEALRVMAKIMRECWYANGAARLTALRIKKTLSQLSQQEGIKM
Nature of the test: ALK5 kinase assay (LanthaScreen Terbium labeled TR-FRET). Format: biochemical. The protocol: ALK5 Kinase Assay for IC50 Determination:
IC50 values of compounds against TGFβ kinase was determined by LanthaScreen™ Terbium Labeled TR-FRET assay. Kinase assays were performed in IX kinase buffer (# PV6135, Invitrogen, Life Technologies Grand Island, N.Y.) where total reaction volume was 10 μL in low-volume 384-well plates (#4511,Corning). Serially diluted compounds (3-fold) were incubated with TGFβ kinase (6 nM) for 10 min, following which a mixture of ATP (10 μM) (# A1852, Sigma, St-Louis, Mo.) and fluorescent-PolyGT substrate (200 nM) (# PV3610, Invitrogen, Life Technologies Grand Island, N.Y.) was added and incubated in dark at room temperature for 1 h. After 1 h, 10 μL stop solution containing Terbium labeled antibody (4 nM) (# PV3529, Invitrogen, Life Technologies Grand Island, N.Y.) and EDTA (# E5134, Sigma, St-Louis, Mo.) (20 mM) in TR-FRET dilution buffer (# PV3574, Invitrogen, Life Technologies Grand Island, N.Y.) was added. Readings were taken in a Synergy Neo Plate reader (BioTek, Winooski) at single excitation of 340 nm and Dual emission at 495 nm and 520 nm respectively.
The % activity of test samples was calculated as (Sample−Min)×100/(Max−Min). [Max: DMSO control, complete reaction with enzyme with DMSO and Min: No enzyme with DMSO]. Percent inhibition (100-% activity) was fitted to the “four-parameter logistic model” in XLfit for determination of IC50 values.
In general terms: Time-resolved FRET reads energy transfer from a long-lived donor to a nearby acceptor.

For another test, the target named is T2, MAPK14/p38α kinase (Homo sapiens, UniProt Q16539).
T2 construct: purchased ThermoFisher PV3304
Nature of the test: MAPK14/p38α kinase assay (LanthaScreen TR-FRET). Format: biochemical. The following applies: for IC50: Table 3, read-out: IC50 (P38 alpha); for inhibition at 0.1 µM: 100 nM concentration of compound, Table 4, read-out: Enzyme Activity MAPK14 (p38alpha) % Inh at 100 nM. The protocol: MAPK14/p38α Kinase Assay for IC50 Determination:
IC50 values of compounds against MAPK14/P38α kinase were determined by Lanthascreen based TR-FRET assay. Kinase reactions were performed in a 10 μL volume in low-volume 384-well plates. The concentration of substrate was maintained at 400 nM in the assay, and the kinase reaction buffer (1×; Cat # PV3189, ThermoFisher) consisted of 50 mM HEPES pH 7.5, 0.01% BRIJ-35, 10 mM MgCl2, and 1 mM EGTA. Serially diluted compounds (3-fold) in DMSO (0.5% in final reaction) were incubated with cocktail of MAPK14/p38α kinase (20 ng/ml; Cat # PV3304, ThermoFisher), Substrate GFP-ATF2 (19-96), (0.4 μM; Cat # PV4445, ThermoFisher), ATP (90 μM; Cat # PV3227, ThermoFisher) and buffer. Kinase reactions were allowed to proceed for 1 hour at room temperature before EDTA (10 mM; Cat # P2825, ThermoFisher) and LanthaScreen™ Tb-antipATF2 (pThr71) Antibody (2 nM; Cat # PV4451, ThermoFisher) in TR-FRET dilution buffer (IX; Cat # PV3574, ThermoFisher) were added. The plate was allowed to incubate at room temperature for 30 minutes before being read on a BMG Pherastar plate reader using the LanthaScreen™ filter block for LanthaScreen™ TR-FRET.
The resulting TR-FRET emission ratio was plotted against the concentration of inhibitor, and the data was fit to a sigmoidal dose-response curve with a variable slope. The IC50 for the inhibitor was calculated from the curve.

The subject of another test is Panc-1. Briefly: Cell viability assay (resazurin, 96 hr) in Panc-1. Type of test: cell-based. Conditions: Homo sapiens; Panc-1 pancreatic cell line, 96 hr exposure; read-out: Panc-1_Cell Viability_IC50. The protocol: (§1) Cell Viability Assay in MIA PaCa-2 and Panc-1
(§2) MIA PaCa-2 (ATCC® CRL-1420™) and Panc-1 (CRL-1469™), both pancreatic cell lines were seeded in their respective medium (DMEM, Cat #10569044 with 10% FBS, Cat #16000044; Gibco for Panc-1 and an additional 2.5% Horse Serum, Cat #16050122; Gibco for MIA PaCa-2) at a cell count of 3000 cells per 100 μl per well in a 96 well edge plate (167425; ThermoFisher). Cells were allowed to grow at 37° C. for 24 hr in 5% CO2 (culture conditions) in a Nuaire incubator (humidified). Serially diluted compounds (100 μl) were added to the culture plate 24 hr later and the cultures (MIA PaCa-2 and Panc-1) were further incubated in culture conditions for 96 hr. Experiment was terminated at the completion of 96 hr exposure to the drug by replacing the medium with 100 μl of 1 mM of resazurin (R7017; Sigma) prepared in culture medium and the plates were further incubated in culture conditions for 4 hr. Fluorescence was then measured using a multimodal plate reader (Biotek Synergy Neo) at an excitation wavelength of 535 nm and emission wavelength of 590 nm to obtain relative fluorescence units. Data analysis was done by subtracting the background fluorescence (only medium blank) value from each reading and then normalizing with the vehicle control (DMSO treated cells) to obtain percent survival/proliferation. Percent survival at different doses was used to calculate IC50 by fitting the curve to the “four-parameter variable slope logistic model” using Prism Graph Pad.
In general terms: The colour change of resazurin is a common sign of viable cells or microbes.

A further test has as its system MIA PaCa-2. Nature of the test: Cell viability assay (resazurin, 96 hr) in MIA PaCa-2. Type of test: cell-based. The following applies: Homo sapiens; MIA PaCa-2 pancreatic cell line, 96 hr exposure; read-out: MiaPaCa-2_Cell Viability_IC50. How it is done:
as §1, §2

T2 sequence (Q16539 whole entry): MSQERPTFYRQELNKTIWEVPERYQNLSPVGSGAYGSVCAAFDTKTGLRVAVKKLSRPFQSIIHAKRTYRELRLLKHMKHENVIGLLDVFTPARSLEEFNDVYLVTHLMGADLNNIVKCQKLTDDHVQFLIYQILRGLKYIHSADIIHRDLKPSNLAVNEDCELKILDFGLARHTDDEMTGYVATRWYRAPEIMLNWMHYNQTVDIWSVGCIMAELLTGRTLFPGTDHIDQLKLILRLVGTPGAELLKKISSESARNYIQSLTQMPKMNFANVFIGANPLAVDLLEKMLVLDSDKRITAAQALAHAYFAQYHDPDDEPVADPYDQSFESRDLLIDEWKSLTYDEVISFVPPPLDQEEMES

For `CC(C)c1cnc(-c2ccc(F)cc2)nc1Nc1ccnc2[nH]cc(C(=O)C(=O)N3CCNCC3)c12` [Compound No. 23, 1-(4-(2-(4-fluorophenyl)-5-isopropylpyrimidin-4-ylamino)-1H-pyrrolo [2,3-b]pyridin-3-yl)-2-(piperazin-1-yl) ethane-1,2-dione hydrochloride], the IC50 on TGFBR1 (ALK5) (Table 3, read-out: IC50 (ALK5)) worked out at 671 nM; at MAPK14/p38α kinase it was 1300 nM; with Panc-1, 5850 nM; in the test with MIA PaCa-2, 1140 nM.

With `CC(C)c1cnc(-c2ccccc2)nc1Nc1ccnc2[nH]cc(C(=O)C(N)=O)c12` [Compound No. 26, 2-(4-((5-isopropyl-2-phenylpyrimidin-4-yl)amino)-1H-pyrrolo[2,3-b]pyridin-3-yl)-2-oxoacetamide hydrochloride], the IC50 on TGFBR1 (ALK5) (Table 3, read-out: IC50 (ALK5)) was 602 nM; on MAPK14/p38α kinase, 244 nM; in the test on Panc-1, greater than 30000 nM; in the test on MIA PaCa-2 it was 2200 nM.

On to `CC(C)c1ccc(-c2ccc(F)cc2)nc1Nc1ccnc2[nH]cc(C(=O)C(N)=O)c12` [Compound No. 27, 2-(4-(6-(4-fluorophenyl)-3-isopropylpyridin-2-ylamino)-1H-pyrrolo [2,3-b]pyridin-3-yl)-2-oxoacetamide hydrochloride], for which the IC50 on TGFBR1 (ALK5) (Table 4, read-out: ALK5 IC50) is greater than 5000 nM; in the test with Panc-1, greater than 30000 nM; in the test with MIA PaCa-2 it was greater than 30000 nM. The inhibition at 0.1 µM on MAPK14/p38α kinase was 0%.

Regarding `CC(C)c1cnc(-c2ccc(F)cc2)nc1Nc1cccc2[nH]cc(C(=O)C(N)=O)c12` [Compound No. 28, 2-(4-(2-(4-fluorophenyl)-5-isopropylpyrimidin-4-ylamino)-1H-indol-3-yl)-2-oxoacetamide hydrochloride], the IC50 at TGFBR1 (ALK5) (Table 4, read-out: ALK5 IC50) is greater than 5000 nM; in the test with Panc-1, greater than 30000 nM; in the test with MIA PaCa-2 it was greater than 30000 nM. The inhibition at 0.1 µM at MAPK14/p38α kinase stood at 21%.
